Legend:
[1] = target: T1, Human Indoleamine 2,3-dioxygenase (IDO) (Homo sapiens, UniProt P14902); experiment: Human IDO enzymatic assay (kynurenine level); format: biochemical; conditions: 6 nM IDO, 10 μM L-Trp; geometric mean; read-out: IDO1 GMean: IC50 (μM) (Biochemical Assay)
T1 construct: His tag (N); made in house; host or cells: E. coli
Outline: (§1)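 Compound is mixed with His-tagged enzyme from E. coli in pH 6.5 phosphate buffer containing ascorbate, methylene blue and catalase, at room temperature. IDO uses 6 nM enzyme and 10 μM Trp for 20 min. TDO uses 1 nM enzyme and 350 μM Trp for 70 min. TCA stops the reaction, and IC50 is derived from kynurenine levels.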

[2] = target: T2, Human Tryptophan 2,3-dioxygenase (TDO) (Homo sapiens, UniProt P48775); experiment: Human TDO enzymatic assay (kynurenine level); format: biochemical; conditions: 1 nM TDO, 350 μM L-Trp; geometric mean; read-out: TDO GMean: IC50 (μM) (Biochemical Assay)
T2 construct: His tag (N); made in house; host or cells: E. coli
Outline: as §1

[3] = target: T3, human TDO (TDO-expressing HEK293 cells) (Homo sapiens, UniProt P48775); experiment: Cell based kynurenine assay, TDO-expressing HEK293 cell clones; conditions: TDO-expressing HEK293 cells, 24 hours incubation; geometric mean; read-out: HEK293 TDO Kynurenine GMean IC50 (μM) (Cellular Assay)
T3 construct: expressed in transfected cells
Outline: (§2)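 Stably transfected HEK293 clones expressing human IDO1 or TDO (CMV promoter) were seeded at 2.5×10^4 cells/well and treated with serially diluted compounds for 24 h. Supernatant kynurenine was then measured, and % inhibition versus DMSO-treated cell and media-only controls was fitted by nonlinear regression to give IC50.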

[4] = target: T4, human IDO (IDO1-expressing HEK293 cells) (Homo sapiens, UniProt P14902); experiment: Cell based kynurenine assay, IDO1-expressing HEK293 cell clones; conditions: IDO1-expressing HEK293 cells, 24 hours incubation; geometric mean; read-out: HEK293 IDO1 Kynurenine GMean IC50 (μM) (Cellular Assay)
T4 construct: expressed in transfected cells
Outline: as §2

T2 sequence (P48775 whole entry): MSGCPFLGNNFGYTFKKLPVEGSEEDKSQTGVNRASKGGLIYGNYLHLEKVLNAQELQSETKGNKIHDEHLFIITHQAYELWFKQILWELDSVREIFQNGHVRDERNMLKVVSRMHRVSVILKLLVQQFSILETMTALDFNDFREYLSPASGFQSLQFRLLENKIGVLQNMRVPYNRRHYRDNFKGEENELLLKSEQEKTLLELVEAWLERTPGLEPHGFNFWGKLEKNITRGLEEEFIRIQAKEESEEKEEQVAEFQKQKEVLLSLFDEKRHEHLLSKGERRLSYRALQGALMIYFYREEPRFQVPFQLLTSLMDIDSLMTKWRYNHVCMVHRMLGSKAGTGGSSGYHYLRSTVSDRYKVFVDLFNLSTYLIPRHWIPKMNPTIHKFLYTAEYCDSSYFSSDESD
T3 sequence (P48775 whole entry): as above
T4 sequence (P14902 whole entry): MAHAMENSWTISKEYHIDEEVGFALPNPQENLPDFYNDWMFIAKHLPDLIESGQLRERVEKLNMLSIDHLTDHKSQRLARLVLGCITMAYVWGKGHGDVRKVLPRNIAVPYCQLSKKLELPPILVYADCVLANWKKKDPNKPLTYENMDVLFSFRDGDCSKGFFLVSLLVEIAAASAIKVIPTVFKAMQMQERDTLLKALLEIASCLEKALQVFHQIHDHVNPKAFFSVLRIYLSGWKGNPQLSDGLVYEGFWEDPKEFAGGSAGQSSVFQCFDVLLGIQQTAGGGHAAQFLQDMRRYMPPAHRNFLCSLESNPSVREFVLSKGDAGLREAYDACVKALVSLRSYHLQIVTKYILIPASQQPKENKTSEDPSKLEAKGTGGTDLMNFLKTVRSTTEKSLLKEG
T1 sequence (P14902 whole entry): as above

Compound | IC50 [1] | IC50 [2] | IC50 [3] | IC50 [4]
CCC(CC)(CC)C(O)c1cc(Cl)cc2cn[nH]c12 (stereo not shown) [Compound P-0267, 1-(5-chloro-1H-indazol-7-yl)-2,2-diethylbutan-1-ol] | 0.0001 to 10 µM | 0.0001 to 10 µM | 0.0001 to 10 µM | 0.0001 to 10 µM
CCC(CC)C(O)c1cc(Cl)cc2cn[nH]c12 (stereo not shown) [Compound P-0268, 1-(5-chloro-1H-indazol-7-yl)-2-ethylbutan-1-ol] | 0.0001 to 10 µM | 0.0001 to 10 µM | 0.0001 to 10 µM | 0.0001 to 10 µM
OC(c1cc(Cl)cc2cn[nH]c12)C12CCC(C(F)F)(CC1)CC2 (stereo not shown) [Compound P-0269, (5-chloro-1H-indazol-7-yl)(4-(difluoromethyl)bicyclo[2.2.2]octan-1-yl)methanol] | 0.0001 to 10 µM | 0.0001 to 10 µM | 0.0001 to 10 µM | 0.0001 to 10 µM
O=C(c1c2c(cc3cn[nH]c13)CC2)C(F)(F)C1CCOCC1 [Compound P-0275, 1-(5,6-dihydro-1H-cyclobuta[f]indazol-7-yl)-2,2-difluoro-2-(tetrahydro-2H-pyran-4-yl)ethan-1-one] | 0.0001 to 10 µM | 0.0001 to 10 µM | 0.0001 to 10 µM | 0.0001 to 10 µM
OC(c1c2c(cc3cn[nH]c13)CC2)C1(C2CCOCC2)CC1 (stereo not shown) [Compound P-0277, (5,6-dihydro-1H-cyclobuta[f]indazol-7-yl)(1-(tetrahydro-2H-pyran-4-yl)cyclopropyl)methanol] | 0.0001 to 10 µM | 0.0001 to 10 µM | > 10 µM | 0.0001 to 10 µM
OC(c1c2c(cc3cn[nH]c13)CC2)C(F)(F)C1CCOCC1 (stereo not shown) [Compound P-0278, 1-(5,6-dihydro-1H-cyclobuta[f]indazol-7-yl)-2,2-difluoro-2-(tetrahydro-2H-pyran-4-yl)ethan-1-ol] | 0.0001 to 10 µM | 0.0001 to 10 µM | > 10 µM | 0.0001 to 10 µM
OC(c1c2c(cc3cn[nH]c13)CC2)C12CCC(CC1)CC2 (stereo not shown) [Compound P-0279, bicyclo[2.2.2]octan-1-yl(5,6-dihydro-1H-cyclobuta[f]indazol-7-yl)methanol] | 0.0001 to 10 µM | 0.0001 to 10 µM | > 10 µM | 0.0001 to 10 µM
CC(C)(C1CCN(S(C)(=O)=O)CC1)C(O)c1c2c(cc3cn[nH]c13)CC2 (stereo not shown) [Compound P-0280, 1-(5,6-dihydro-1H-cyclobuta[f]indazol-7-yl)-2-methyl-2-(1-(methylsulfonyl)piperidin-4-yl)propan-1-ol] | 0.0001 to 10 µM | 0.0001 to 10 µM | > 10 µM | 0.0001 to 10 µM
CC1(C(O)c2c(Cl)c(Cl)cc3cn[nH]c23)CCCCC1 (stereo not shown) [Compound P-0287, (5,6-dichloro-1H-indazol-7-yl)(1-methylcyclohexyl)methanol] | 0.0001 to 10 µM | 0.0001 to 10 µM | > 10 µM | 0.0001 to 10 µM

Continued, values first:

IC50 [1] | IC50 [2] | IC50 [3] | IC50 [4] | Compound
0.0001 to 10 µM | 0.0001 to 10 µM | 0.0001 to 10 µM | 0.0001 to 10 µM | CS(=O)(=O)N1CCC(C(F)(F)C(O)c2cc(Cl)cc3cn[nH]c23)CC1 (stereo not shown) [Compound P-0270, 1-(5-chloro-1H-indazol-7-yl)-2,2-difluoro-2-(1-(methylsulfonyl)piperidin-4-yl)ethan-1-ol]
0.0001 to 10 µM | 0.0001 to 10 µM | 0.0001 to 10 µM | 0.0001 to 10 µM | CC(C)(C(O)c1cc(Cl)cc2cn[nH]c12)[C@H]1C[C@H]2CC[C@@H](C1)N2S(C)(=O)=O (stereo partly drawn) [Compound P-0271, 1-(5-chloro-1H-indazol-7-yl)-2-methyl-2-((1R,3r,5S)-8-(methylsulfonyl)-8-azabicyclo[3.2.1]octan-3-yl)propan-1-ol]
0.0001 to 10 µM | 0.0001 to 10 µM | 0.0001 to 10 µM | 0.0001 to 10 µM | CC(C)(C(O)c1cc(Cl)cc2cn[nH]c12)[C@@H]1C[C@H]2CC[C@@H](C1)N2S(C)(=O)=O (stereo partly drawn) [Compound P-0272, 1-(5-chloro-1H-indazol-7-yl)-2-methyl-2-((1R,3s,5S)-8-(methylsulfonyl)-8-azabicyclo[3.2.1]octan-3-yl)propan-1-ol]
0.0001 to 10 µM | 0.0001 to 10 µM | 0.0001 to 10 µM | 0.0001 to 10 µM | CC(C)(C)OC(=O)N1CC2CCC(C1)C2CC(O)c1cc(Cl)cc2cn[nH]c12 (stereo not shown) [Compound P-0273, tert-butyl 8-(2-(5-chloro-1H-indazol-7-yl)-2-hydroxyethyl)-3-azabicyclo[3.2.1]octane-3-carboxylate]
10 to 100 µM | 10 to 100 µM | > 10 µM | > 10 µM | OC(CC1C2CCC1CNC2)c1cc(Cl)cc2cn[nH]c12 (stereo not shown) [Compound P-0274, 2-(3-azabicyclo[3.2.1]octan-8-yl)-1-(5-chloro-1H-indazol-7-yl)ethan-1-ol]
0.0001 to 10 µM | 0.0001 to 10 µM | 0.0001 to 10 µM | 0.0001 to 10 µM | CCS(=O)(=O)N1CCC(C(F)(F)C(O)c2cc(Cl)cc3cn[nH]c23)CC1 (stereo not shown) [Compound P-0276, 1-(5-chloro-1H-indazol-7-yl)-2-(1-(ethylsulfonyl)piperidin-4-yl)-2,2-difluoroethan-1-ol]
0.0001 to 10 µM | 0.0001 to 10 µM | 0.0001 to 10 µM | 0.0001 to 10 µM | CC(=O)N1CC2CCC(C1)C2CC(O)c1cc(Cl)cc2cn[nH]c12 (stereo not shown) [Compound P-0281, 1-(8-(2-(5-chloro-1H-indazol-7-yl)-2-hydroxyethyl)-3-azabicyclo[3.2.1]octan-3-yl)ethan-1-one]
0.0001 to 10 µM | 0.0001 to 10 µM | 0.0001 to 10 µM | 0.0001 to 10 µM | CS(=O)(=O)N1CC2CCC(C1)C2CC(O)c1cc(Cl)cc2cn[nH]c12 (stereo not shown) [Compound P-0282, 1-(5-chloro-1H-indazol-7-yl)-2-(3-(methylsulfonyl)-3-azabicyclo[3.2.1]octan-8-yl)ethan-1-ol]
0.0001 to 10 µM | 0.0001 to 10 µM | 0.0001 to 10 µM | > 10 µM | CS(=O)(=O)N1CCC(C(O)c2cc(Cl)cc3cn[nH]c23)CC1 (stereo not shown) [Compound P-0283, (5-chloro-1H-indazol-7-yl)(1-(methylsulfonyl)piperidin-4-yl)methanol]
0.0001 to 10 µM | 0.0001 to 10 µM | 0.0001 to 10 µM | 0.0001 to 10 µM | CC(C)(C1CCN(S(C)(=O)=O)CC1)C(O)c1c(F)ccc2cn[nH]c12 (stereo not shown) [Compound P-0284, 1-(6-fluoro-1H-indazol-7-yl)-2-methyl-2-(1-(methylsulfonyl)piperidin-4-yl)propan-1-ol]
0.0001 to 10 µM | 0.0001 to 10 µM | 0.0001 to 10 µM | 0.0001 to 10 µM | CC(C)(C(O)c1c(F)c(Cl)cc2cn[nH]c12)[C@H]1C[C@H]2CC[C@@H](C1)N2S(C)(=O)=O (stereo partly drawn) [Compound P-0285, 1-(5-chloro-6-fluoro-1H-indazol-7-yl)-2-methyl-2-((1R,3r,5S)-8-(methylsulfonyl)-8-azabicyclo[3.2.1]octan-3-yl)propan-1-ol]
0.0001 to 10 µM | 0.0001 to 10 µM | 0.0001 to 10 µM | 0.0001 to 10 µM | CC1(C(O)c2cc(Cl)cc3cn[nH]c23)CCN(S(C)(=O)=O)CC1 (stereo not shown) [Compound P-0286, (5-chloro-1H-indazol-7-yl)(4-methyl-1-(methylsulfonyl)piperidin-4-yl)methanol]
0.0001 to 10 µM | 0.0001 to 10 µM | 0.0001 to 10 µM | 0.0001 to 10 µM | CS(=O)(=O)N1CCC(C(F)(F)C(O)c2c(F)c(Cl)cc3cn[nH]c23)CC1 (stereo not shown) [Compound P-0288, 1-(5-chloro-6-fluoro-1H-indazol-7-yl)-2,2-difluoro-2-(1-(methylsulfonyl)piperidin-4-yl)ethan-1-ol]

From patent US10508085B2, “Compounds and methods for IDO and TDO modulation, and indications therefor” (Plexxikon Inc., priority 2016, dated 2019)
